# The METLIN SMRT retention time set (Domingo-Almenara et al. 2019)
# Test: gradient 5% acetonitrile 3 min, to 50% in 2 min, to 85% in 15 min, held 3 min, 100 µL/min
# Conditions: column: Zorbax Extend-C18 2.1 x 50 mm; eluents: water / acetonitrile, 0.1% formic acid
# Outline: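 Standards, all pure, were combined into mixtures of ~100 molecules and run at 100 μL/min on a Zorbax Extend-C18 column (2.1 × 50 mm, 1.8 μm) with water and acetonitrile, each containing 0.1% formic acid. A coupled quadrupole time-of-flight mass spectrometer operated in positive and negative ionization mode. Retention time values come from computationally picked adduct peaks, each inspected manually.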
row,SMILES,RP-LC retention time
1,CCc1ccc(OCc2nc(CC(=O)Nc3nc(-c4ccc(C)cc4)cs3)cs2)cc1,1270 s
2,CC(C)CNC(=O)c1ccc(-c2nnc3ccc(NC(=O)C4CC4)cn23)cc1,708 s
3,CCn1c(C)c(C(=O)C(C)N(Cc2ccc(F)cc2)C(=O)C2CC2)c(C)c1C(=O)OC (stereo not drawn),1030 s
4,CCOC(=O)CNC(=O)N1CCC(n2c(-c3ccc(F)cc3)nc3cccnc32)C1 (stereo not drawn),641 s
5,CNC(=O)c1nc(C(C)(C)NC(=O)c2ccoc2)nc2c1OCO2,624 s
6,O=C(COc1ccccc1Cl)Nc1ccc(-c2nc(-c3ccccc3)no2)cc1,1280 s
7,CCCOc1ccccc1C(=O)Nc1nonc1-c1ccccc1,991 s
8,NS(=O)(=O)c1ccc(-n2nc(C(F)(F)F)cc2-c2ccc(Cl)cc2)cc1,959 s
9,CC(=O)Nc1ccc(NC(=O)C2CCCN(c3nccnc3Sc3ccc(C)cc3)C2)cc1 (stereo not drawn),894 s
10,COC(=O)Cn1c2ccc(F)cc2c2nc3ccccc3nc21,658 s
11,Cc1ccc(Cl)cc1NC(=O)N1CCC(n2c(-c3ccco3)nc3cccnc32)C1 (stereo not drawn),835 s
12,CCCc1noc(-c2nnn3c2COC(c2ccc(F)cc2)C3)n1 (stereo not drawn),1040 s
13,Cc1nn(-c2nc(-c3ccc(Cl)cc3)cs2)c(C)c1CC(=O)NC(C)C,1080 s
14,CC(C)Sc1ccc(CC(=O)NCC2CCN(C(=O)NC(C)(C)C)CC2)cc1,828 s
15,O=C(Cc1cccs1)NCc1cccnc1Oc1ccccc1,853 s
16,Cc1ccccc1OCC(=O)NCc1c(C)noc1C,790 s
17,O=C(NCC(c1cccnc1)N1CCc2ccccc21)C(=O)Nc1ccc2c(c1)OCO2 (stereo not drawn),734 s
18,CCN1C(=O)C(C)(C(=O)Nc2ccc(C(=O)OC)cc2)Oc2cccnc21 (stereo not drawn),861 s
19,Cc1sc2cc(C(=O)N(C)C)[nH]c2c1CN1CCCCC1,606 s
20,CCC(C)NC(=O)N1CC(n2cc(C(=O)NCC3CC3)nn2)C1 (stereo not drawn),662 s
21,Oc1ccc2c3c1OC1C(O)CC[C@@]4(O)[C@@H](C2)N(CC2CCC2)CC[C@]314 (stereo partly drawn),619 s

row,SMILES,RP-LC retention time
1,O=C(NCC1CCN(C(=O)c2ccccc2F)CC1)c1ccc(Cl)s1,781 s
2,COc1ncc(-c2ccc3nccc(-c4ccnnc4)c3c2)cc1NS(=O)(=O)c1ccc(F)cc1F,785 s
3,NC(N)=N/N=C(\c1ccc(Cl)cc1)C1CC1,665 s
4,COc1ccc(Cn2c(C)c(CNCc3ccccn3)c(C(=O)O)c2C)cc1,690 s
5,Cc1cc(C(=O)NCc2ccc(C)o2)c2cc(Br)ccc2n1,801 s
6,Cc1cccc(-c2noc(Cn3c(=O)n(-c4cccc(C)c4)c(=O)c4sccc43)n2)c1,1090 s
7,Cc1ccc(-c2cc3c(=O)n(Cc4nc(-c5ccc6c(c5)OCO6)no4)ncn3n2)c(C)c1,1170 s
8,Cc1cc(Cl)ccc1NC(=O)c1cc2c(=O)n(CC(C)C)ccc2n1C,900 s
9,Cc1cc(C)cc(NC(=O)c2cc(C)n3nccc3n2)c1,1020 s
10,CCn1c(C)c(CN2CCC(C(=O)NCc3ccc(C)cc3)CC2)c2ccccc21,733 s
11,O=C(Nc1cc(F)cc(F)c1)c1c(O)c2cccnc2n(-c2cccc(F)c2)c1=O,1310 s
12,O=C(c1ccco1)N1CCC(Cc2noc(C3CC3)n2)C1 (stereo not drawn),709 s
13,O=C(NCCn1c(-c2ccc(F)cc2)nc2cccnc21)Nc1ccc2c(c1)OCCO2,682 s
14,COC(=O)c1ccsc1NC(=O)c1c[nH]c2ccccc12,882 s
15,CC1=NS(=O)(=O)N(Cc2ccccc2)C=C1C(=O)OCc1nc(-c2ccc(C)cc2)no1,1110 s
16,O=C(NCc1cccc2ccccc12)C(=O)c1c[nH]c2ccccc12,1010 s
17,OCc1nc2ccccc2n1C/C=C/c1ccccc1,579 s
18,Cc1ccc(-c2nc3ncc(C#N)c(N)n3n2)cc1,707 s
19,Cc1cc(-n2nnc(C(=O)O)c2-c2ccccn2)ccc1F,642 s
20,O=C1N(c2cccc(F)c2)c2ncccc2S(=O)(=O)N1Cc1ccccc1F,1020 s

# The next lines start with the values.
row,RP-LC retention time,SMILES
1,762 s,CCn1cnc(S(=O)(=O)N2CCC(C(=O)N3CCN(c4ccc(F)cc4)CC3)CC2)c1
2,587 s,COc1ccc(C(=O)N2CCCn3cc(-c4ccccc4F)nc32)cn1
3,970 s,Cn1c(=O)sc2cc(S(=O)(=O)N3CCC(C(=O)Nc4cccc(C(F)(F)F)c4)CC3)ccc21
4,618 s,CC(C)CNC(=O)NCCn1nnc2cc(C(=O)N3CCCC3)ccc21
5,658 s,CCOC(=O)C(C)NC(=O)N1CCN(Cc2nc3cccnc3n2-c2cc(C)cc(C)c2)CC1 (stereo not drawn)
6,671 s,CCOC(=O)CNC(=O)N1CCCN(c2nc3cc(Br)ccc3n3cccc23)CC1
7,883 s,Cc1ccc(-c2nccn3cc(C(=O)NC(C)C)nc23)cc1
8,855 s,COc1cccc(CNC(=O)C2(C)CCCN(C(=O)NCCc3ccccc3)C2)c1 (stereo not drawn)
9,726 s,CCn1cnc(S(=O)(=O)N2CCCC(C(=O)NCc3ccccc3C)C2)c1 (stereo not drawn)
10,739 s,CCOC(=O)c1nc(N2CCN(Cc3ccc4c(c3)OCO4)CC2)c2ccccc2n1
11,586 s,COc1ccccc1CN1C[C@@H]2C(=O)N(CCCN3CCCC3=O)C(=O)[C@@H]2C1
12,662 s,NC(=O)COC1CCC12CCN(C(=O)c1ccc3c(c1)OCO3)CC2 (stereo not drawn)
13,786 s,O=C(CN1C(=O)CCc2cc(Br)ccc21)N1CCN(c2ncccn2)CC1
14,678 s,Cc1cc(F)ccc1NS(=O)(=O)c1cc(-c2[nH]ncc2C(=O)N2CCOCC2)oc1C
15,846 s,CCn1nccc1C(=O)Nc1cc(-c2cc3cc(OC)ccc3n2CC)[nH]n1
16,620 s,Cc1cc(C)c(NC(=O)Cn2ncc3c(N4CCN(c5ccccn5)CC4)ncnc32)c(C)c1
17,610 s,COc1ccc(S(=O)(=O)N2CCC3(CC2)c2nccn2CCN3C)cc1OC
18,884 s,CCS(=O)(=O)N1CCCc2cc(C(=O)NCCC(C)C)ccc21
19,924 s,O=C(N1CCN(c2cc(-c3ccc(Cl)cc3)[nH]n2)CC1)C1(c2ccccc2)CC1
20,769 s,COc1cccc(N2CCN(c3cc(SCC(=O)NCC4CCCO4)ncn3)CC2)c1 (stereo not drawn)
21,774 s,O=c1n(Cc2ccccc2Cl)nc2c(S(=O)(=O)N3CCOCC3)cccn12
22,951 s,CCOc1ccc(CCNC(=O)c2cc(S(=O)(=O)N3CCCC3)c(C)n2C)cc1OCC
23,770 s,COc1cc(OC)cc(C(=O)N2CCC3(C2)C(=O)N(C)c2ccccc23)c1 (stereo not drawn)
24,665 s,CN1C(=O)Cc2cc(C(=O)NC3CCCC3)ccc21

row,RP-LC retention time,SMILES
1,820 s,Cc1oc(C2CCN(C(=O)Cc3ccccc3Cl)CC2)nc1C(=O)N1CCCC1
2,625 s,Cc1ccc(NC(=O)CN2C(=O)COc3ccc(C(=O)N4CCCC4)cc32)nc1
3,646 s,c1csc(Cc2nc(-c3ccc4c(c3)ncn4CCN3CCCCC3)no2)c1
4,612 s,COc1ccc(-c2nc3cnccn3c2Nc2cccc(C(N)=O)c2)cc1
5,644 s,COCCN1CN=C(Nc2nc(C)c3cccc(C)c3n2)NC1
6,979 s,COc1ccccc1NS(=O)(=O)c1cn(CC(C)C)c2ncccc12
7,829 s,CCc1cc(=O)n(CC(=O)Nc2cccc(C(C)C)c2)c(N2CCOCC2)n1
8,639 s,COCCNC(=O)N1CCCC(C)(C(=O)NCc2ccccc2)C1 (stereo not drawn)
9,600 s,CCOc1ccc2ncc(C(=O)c3ccc(OC)cc3)c(N3CCN(CC)CC3)c2c1
10,606 s,CCOc1cc(CN2CCn3c(nn(CC4CC4)c3=O)C2)ccc1O
11,787 s,CCN1c2ccccc2C(=O)NC12CCN(C(=O)Nc1cc(Cl)ccc1OC)CC2
12,660 s,CCn1c(N2CCN(C(=O)Nc3cc(OC)cc(OC)c3)CC2)nc2ccccc21
13,562 s,O=C(CN1CCN(c2nccn2-c2ccccc2F)CC1)Nc1ccc(F)cc1F
14,914 s,Cc1cc(Cl)ccc1NC(=O)C1CCCN1S(=O)(=O)c1cc2c(cc1C)NC(=O)C(C)O2 (stereo not drawn)
15,808 s,COc1ccc(-c2nnc(NC(=O)c3ccc(S(=O)(=O)N(C)C)cc3)s2)c(OC)c1
16,714 s,Cc1cccc(NC(=O)Cn2nc3c(N(C)C4CCCCC4)nccn3c2=O)c1
17,812 s,CCOc1ccc(CNC(=O)C2CCCN(c3cc(=O)n(C)c(=O)n3CC)C2)cc1 (stereo not drawn)
18,625 s,Cc1nn(-c2ccc(F)cc2)c(C)c1S(=O)(=O)N1CCC(C(=O)N2CCN(C)CC2)CC1
19,635 s,O=C(c1cnc2n(c1=O)CCS2)N1CCN(c2ccc([N+](=O)[O-])cc2)CC1
20,580 s,CC(NC(=O)c1ccc2c(c1)OCO2)C(=O)N1CCN(c2ccccn2)CC1 (stereo not drawn)
21,617 s,CC(C)CN1C(=O)c2ccccc2C(C(=O)NCCN2CCN(C)CC2)C1c1cccs1 (stereo not drawn)
22,712 s,O=S(=O)(Nc1ccc(Cl)cc1)c1ccc2nncn2c1
23,967 s,CCc1nc(-c2cc(S(=O)(=O)N3CCC(C(=O)NCc4cccs4)CC3)c(C)s2)no1
